Source: patent US11739070B2, “C5A receptor modulators” (IDORSIA PHARMACEUTICALS LTD, priority 2018, dated 2023)

Molecular target: T1, C5AR1 (Homo sapiens, UniProt P21730)
T1 construct: host or cells: CHO-K1
T1 sequence (P21730 1-350): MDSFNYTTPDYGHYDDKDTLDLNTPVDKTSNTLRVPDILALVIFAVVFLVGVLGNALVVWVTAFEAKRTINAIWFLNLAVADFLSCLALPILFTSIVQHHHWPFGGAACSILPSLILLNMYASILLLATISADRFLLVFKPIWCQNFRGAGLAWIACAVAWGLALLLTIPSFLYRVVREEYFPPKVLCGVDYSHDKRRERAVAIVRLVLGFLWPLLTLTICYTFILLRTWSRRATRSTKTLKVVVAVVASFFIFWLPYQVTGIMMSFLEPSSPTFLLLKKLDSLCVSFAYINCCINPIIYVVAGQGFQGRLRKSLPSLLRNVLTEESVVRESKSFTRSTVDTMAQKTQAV
Test: hC5a DISCO IC50 assay (PathHunter beta-arrestin, antagonist mode)
Format: cell-based
Conditions: CHO-K1 C5AR1 beta-arrestin cell line; antagonist vs 1-10 nM C5a agonist; geometric mean values; read-out: C5aR IC50
Procedure: II. Biological Assays In Vitro Assay hC5a DISCO IC50 Assay
5 μl Antagonist at 6-fold end concentration or DMSO control is added to assay medium and subsequently 5 μl 1-10 nM C5a agonist at 6 fold end concentration. Cells are centrifuged for 1 min at 1000 rpm and incubated for 1.5 hour in at 37° C. Plates are equilibrated at room temperature for several minutes before adding 12 μl/well Detection Reagent (PathHunter Detection Kit, DiscoverX, Cat #93-0001). Plates are centrifuged for 1 min at 1000 rpm and incubated for 45 minutes at RT before being measured on a Fluostar Optima, BMG Labtech. IC50 values are calculated from a serial dilution range of antagonist using inhouse software and given in nmol/l.
The calculated IC50 values may fluctuate depending on the daily cellular assay performance. Fluctuations of this kind are known to those skilled in the art. Average IC50 values from several measurements are given as geometric mean values.

Row | SMILES | IC50
1 | CN(C)C(=O)c1cccc2c1n(Cc1ccccc1C(F)(F)F)c(=O)n2[C@@H]1CCN(c2c(F)cccc2C#N)C1 [Example 101, 1-[(R)-1-(2-Cyano-6-fluoro-phenyl)-pyrrolidin-3-yl]-2-oxo-3-(2-trifluoromethyl-benzyl)-2,3-dihydro-1H-benzoimidazole-4-carboxylic acid dimethylamide] | 1.58 µM
2 | COc1cccc2c1n(Cc1nccnc1C(F)(F)F)c(=O)n2C1CCN(c2c(F)cccc2C#N)CC1 [Example 96, 3-Fluoro-2-{4-[4-methoxy-2-oxo-3-(3-trifluoromethyl-pyrazin-2-ylmethyl)-2,3-dihydro-benzoimidazol-1-yl]-piperidin-1-yl}-benzonitrile] | 0.231 µM
3 | COc1cccc2c1n(Cc1ccccc1C(F)(F)F)c(=O)n2C1CCN(C(=O)OC(C)(C)C)C(C)C1 (stereo not drawn) [Example 144, 4-[4-Methoxy-2-oxo-3-(2-trifluoromethyl-benzyl)-2,3-dihydro-benzoimidazol-1-yl]-2-methyl-piperidine-1-carboxylic acid tert-butyl ester] | 0.312 µM
4 | COc1cccc2c1n(Cc1ccccc1C(F)(F)F)c(=O)n2[C@@H]1CCN(C(=O)OC2(C(F)(F)F)COC2)C1 [Example 86, (R)-3-[4-Methoxy-2-oxo-3-(2-trifluoromethyl-benzyl)-2,3-dihydro-benzoimidazol-1-yl]-pyrrolidine-1-carboxylic acid 3-trifluoromethyl-oxetan-3-yl ester] | 0.229 µM
5 | COc1cccc2c1n(Cc1ccccc1C(F)(F)F)c(=O)n2C1CCCN(c2c(C)cccc2F)C1 (stereo not drawn) [Example 212, 1-[1-(2-Fluoro-6-methyl-phenyl)-piperidin-3-yl]-4-methoxy-3-(2-trifluoromethyl-benzyl)-1,3-dihydro-benzoimidazol-2-one] | 2.08 µM
6 | Cc1cccc(C)c1N1CC[C@@H](n2c(=O)n(Cc3ccccc3C(F)(F)F)c3c(=O)[nH]ccc32)C1 [Example 93, 1-[(R)-1-(2,6-Dimethyl-phenyl)-pyrrolidin-3-yl]-3-(2-trifluoromethyl-benzyl)-3,5-dihydro-1H-imidazo[4,5-c]pyridine-2,4-dione] | 0.149 µM
7 | COc1ncncc1Cn1c(=O)n([C@@H]2CCN(c3c(F)cccc3C#N)C2)c2cccc(OC)c21 [Example 114, 3-Fluoro-2-{(R)-3-[4-methoxy-3-(4-methoxy-pyrimidin-5-ylmethyl)-2-oxo-2,3-dihydro-benzoimidazol-1-yl]-pyrrolidin-1-yl}-benzonitrile] | 1.54 µM
8 | COc1cccc2c1n(Cc1ccccc1C(F)(F)F)c(=O)n2[C@@H]1CCN(C(=O)OC2(C)COC2)C1 [Example 70, (R)-3-[4-Methoxy-2-oxo-3-(2-trifluoromethyl-benzyl)-2,3-dihydro-benzoimidazol-1-yl]-pyrrolidine-1-carboxylic acid 3-methyl-oxetan-3-yl ester] | 0.538 µM
9 | N#Cc1cccc(F)c1N1CC[C@@H](n2c(=O)n(Cc3ccccc3C(F)(F)F)c3c(CO)cccc32)C1 [Example 102, 3-Fluoro-2-{(R)-3-[4-hydroxymethyl-2-oxo-3-(2-trifluoromethyl-benzyl)-2,3-dihydro-benzoimidazol-1-yl]-pyrrolidin-1-yl}-benzonitrile] | 0.759 µM
10 | CNC(=O)c1cccc2c1n(Cc1ccccc1C(F)(F)F)c(=O)n2[C@@H]1CCN(c2c(F)cccc2C#N)C1 [Example 99, 1-[(R)-1-(2-Cyano-6-fluoro-phenyl)-pyrrolidin-3-yl]-2-oxo-3-(2-trifluoromethyl-benzyl)-2,3-dihydro-1H-benzoimidazole-4-carboxylic acid methylamide] | 0.391 µM

Now those with a lower IC50, led by results:

Row | IC50 | SMILES
11 | 0.135 µM | COc1cccc2c1n(Cc1ccccc1C(F)(F)F)c(=O)n2[C@@H]1CCN(c2c(F)cccc2CCCN2CCOCC2)C1 [Example 162, 1-{(R)-1-[2-Fluoro-6-(3-morpholin-4-yl-propyl)-phenyl]-pyrrolidin-3-yl}-4-methoxy-3-(2-trifluoromethyl-benzyl)-1,3-dihydro-benzoimidazol-2-one]
12 | 0.084 µM | COc1ccccc1Cn1c(=O)n([C@@H]2CCN(c3c(F)cccc3F)C2)c2cccc(OC)c21 [Example 68, 1-[(R)-1-(2,6-Difluoro-phenyl)-pyrrolidin-3-yl]-4-methoxy-3-(2-methoxy-benzyl)-1,3-dihydro-benzoimidazol-2-one]
13 | 0.061 µM | COc1ccccc1Cn1c(=O)n([C@@H]2CCN(c3c(F)cccc3C#N)C2)c2cccc(OC)c21 [Example 109, 3-Fluoro-2-{(R)-3-[4-methoxy-3-(2-methoxy-benzyl)-2-oxo-2,3-dihydro-benzoimidazol-1-yl]-pyrrolidin-1-yl}-benzonitrile]
14 | 0.053 µM | Cc1cccc(F)c1N1CC[C@@H](n2c(=O)n(Cc3ccccc3C(F)(F)F)c3c(N4CCOCC4)nccc32)C1 [Example 129, 1-[(R)-1-(2-Fluoro-6-methyl-phenyl)-pyrrolidin-3-yl]-4-morpholin-4-yl-3-(2-trifluoromethyl-benzyl)-1,3-dihydro-imidazo[4,5-c]pyridin-2-one]
15 | 0.043 µM | COc1cccc2c1n(Cc1cccnc1C(F)(F)F)c(=O)n2C1CCN(c2c(C)cccc2C)CC1 [Example 54, 1-[1-(2,6-Dimethyl-phenyl)-piperidin-4-yl]-4-methoxy-3-(2-trifluoromethyl-pyridin-3-ylmethyl)-1,3-dihydro-benzoimidazol-2-one]
16 | 0.039 µM | COc1cccc2c1n(Cc1ccccc1C(F)(F)F)c(=O)n2[C@@H]1CCN(c2c(F)cccc2CO)C1 [Example 88, 1-[(R)-1-(2-Fluoro-6-hydroxymethyl-phenyl)-pyrrolidin-3-yl]-4-methoxy-3-(2-trifluoromethyl-benzyl)-1,3-dihydro-benzoimidazol-2-one]
17 | 0.02 µM | COc1cccc2c1n(Cc1ccccc1C(F)(F)F)c(=O)n2C1CCN(c2c(C)cccc2F)CC1C (stereo not drawn) [Example 147, 1-[1-(2-Fluoro-6-methyl-phenyl)-3-methyl-piperidin-4-yl]-4-methoxy-3-(2-trifluoromethyl-benzyl)-1,3-dihydro-benzoimidazol-2-one]
18 | 0.02 µM | COc1cccc2c1n(Cc1ccccc1C(F)(F)F)c(=O)n2[C@@H]1CCN(c2c(F)cccc2CC=O)C1 [Example 126, (3-Fluoro-2-{(R)-3-[4-methoxy-2-oxo-3-(2-trifluoromethyl-benzyl)-2,3-dihydro-benzoimidazol-1-yl]-pyrrolidin-1-yl}-phenyl)-acetaldehyde]
19 | 0.015 µM | COc1cccc2c1n(Cc1ccccc1C(F)(F)F)c(=O)n2[C@H]1CN(c2c(C)cccc2F)C[C@@H]1C (relative stereo) [Example 198, 1-[(3R*,4S*)-1-(2-Fluoro-6-methyl-phenyl)-4-methyl-pyrrolidin-3-yl]-4-methoxy-3-(2-trifluoromethyl-benzyl)-1,3-dihydro-benzoimidazol-2-one]
20 | 0.009 µM | COc1cccc2c1n(Cc1cnccc1C(C)C)c(=O)n2[C@@H]1CCN(c2c(C)cccc2F)C1 [Example 180, 1-[(R)-1-(2-Fluoro-6-methyl-phenyl)-pyrrolidin-3-yl]-3-(4-isopropyl-pyridin-3-ylmethyl)-4-methoxy-1,3-dihydro-benzoimidazol-2-one]
21 | 0.006 µM | COc1cccc2c1n(Cc1nccnc1C(F)(F)F)c(=O)n2[C@@H]1CCN(c2c(C)cccc2F)C1 [Example 167, 1-[(R)-1-(2-Fluoro-6-methyl-phenyl)-pyrrolidin-3-yl]-4-methoxy-3-(3-trifluoromethyl-pyrazin-2-ylmethyl)-1,3-dihydro-benzoimidazol-2-one]
